In publication PMC8113538, “Acute toxicity analysis of an inhibitor of BCL2, Disarib, in rats” (Scientific Reports, 2021):

What was measured:
[1] = test system: interaction of BCL2 with BAX; parameters: method as in PMID 28223017; conditions: cited from earlier work
[2] = In vitro stability of Disarib in plasma (HPLC); type: in vitro ADME, rats; conditions: 80% plasma diluted in PBS; 37 °C; 0, 2, 4, 6 h; HPLC peak
Method: The stability of Disarib (100 μM) was investigated in phosphate-buffered saline (PBS) and in plasma. The blood was collected from rats by heart puncture, and plasma was separated for the study. After the addition of Disarib into plasma or PBS, the mixture was incubated at 37 °C in water bath[25],[26]. The samples were then collected at different time points, 0, 2, 4, and 6 h, mixed manually with acetonitrile (1:1), and analyzed on HPLC[27],[40]. The values plotted represent the mean of three independent experiments. The samples were analyzed by HPLC using the Shimadzu HPLC system. LC was carried out on the C18 analytical column. The mobile phase was the gradient of acetonitrile and water. Disarib specific peaks were detected at 232 nm. The injection volume was 20 μl, and the flow rate was 1.2 ml/min. The standard curves were constructed by plotting the peak area vs. concentration of Disarib[40].

Wistar rats [3] = test: Serum biochemistry (liver and kidney function); type: in vivo, Wistar rats (Rattus norvegicus); conditions: serum day 14
Method: After 14 days of Disarib administration, two animals were sacrificed using CO2 asphyxiation from each group, and blood was collected in tubes without using anticoagulant and centrifuged (900×g, 10 min). Serum glutamic pyruvic transaminase (SGPT), serum glutamic oxaloacetic transaminase (SGOT), alkaline phosphatase (ALP), albumin, total protein, bilirubin, blood urea nitrogen (BUN), creatinine, uric acid, and phosphorous were analyzed as described earlier[28],[29]. Analysis of serum samples was performed at Rohana Veterinary Diagnostic Lab, Bangalore, India.

BCL-xL = test system: BCL-xL; parameters: method as in PMID 28223017, PMID 27693384; conditions: cited from earlier work
[4] = Disarib solubility assay (shake flask method, HPLC); type: physicochemical; conditions: Disarib 100 µM
Method: The solubility of Disarib was determined by the shake flask method, as described earlier. Briefly, Disarib (100 μM) was dissolved in various solvents such as alcohol (40, 60, 80 and 100%), acid (0.1, 0.3 and 0.6 N HCl) and DMSO (25, 50, 75 and 100%). Further, solubility of Disarib was also tested in a combination of alcohol (40, 60%) and acid (0.1, 0.3 N). The suspension was vortexed 2–3 min and kept in a water bath for 5 min, as described before[25],[26],[39]. In each case, the samples were diluted in acetonitrile and analyzed using HPLC in acetonitrile:water gradient[27],[40]. The area under the curve (AUC) was determined by using the software LabSolutions, Shimadzu (Japan). The values used for plotting in GraphPad Prism (ver 5.1) softwarewere the mean of three independent experiments. The samples were analyzed by HPLC using the Shimadzu HPLC system. LC was carried out on the C18 analytical column. The mobile phase was the gradient of acetonitrile and water. Disarib specific peaks were detected at 232 nm. The injection volume was 20 μl, and the flow rate was 1.2 ml/min. The standard curves were constructed by plotting the peak area vs. concentration of Disarib[40].

[5] = test system: interaction of BCL2 with BAK; parameters: method as in PMID 28223017; conditions: cited from earlier work
Wistar rats [6] = test: Haematological analysis after single oral dose; type: in vivo, Wistar rats (Rattus norvegicus); conditions: for platelet count vs control / Eosinophils / MCH (mean corpuscular haemoglobin) / MCHC (mean corpuscular haemoglobin concentration) / MCV (mean cell volume) / Monocytes / PCV (packed cell volume): Wistar rats
Method: After 14 days of Disarib treatment, two animals from each group were sacrificed using CO2 asphyxiation, and blood was collected in EDTA-coated vials by heart puncture. Red blood cells (RBC), white blood cells (WBC), platelet counts (PLT), packed cell volume (PCV), hemoglobin (HGB), mean cell volume (MCV), mean corpuscular hemoglobin (MCH), mean corpuscular hemoglobin concentration (MCHC), lymphocytes, neutrophils, eosinophils and monocytes were analyzed as described before[28],[31],[43]. Analysis of blood samples was performed at Rohana Veterinary Diagnostic Lab, Bangalore, India.

[7] = Wistar rats, 100, 1000, 2000 mg/kg oral
[8] = 100 mg/kg oral, day 14, animal a
[9] = 100 mg/kg oral, day 14, animal b
[10] = 1000 mg/kg oral, day 14, animal a
[11] = 1000 mg/kg oral, day 14, animal b
[12] = 2000 mg/kg oral, day 14, animal a
[13] = 2000 mg/kg oral, day 14, animal b
[14] = Wistar rats, 100, 1000, 2000 mg/kg oral, day 14

O=C1Nc2ccccc2/C1=C/c1c(-c2ccc(Br)cc2)nc2sc(Cc3ccc(Cl)cc3)nn12 [Disarib]
disruption of BCL2-BAX interaction [1]: did not disrupt the interaction of BCL2 with BAX | stability in plasma [2]: gradually decreased in plasma with increasing time | hepatic function tests (SGPT, ALP, SGOT, total protein, Albumin, Bilirubin) (Wistar rats [3]; [7]): did not cause any adverse effect on liver function | renal function (BUN, Creatinine, Phosphorous, Uric acid) vs control (Wistar rats [3]; [7]): did not have any appreciable variation | ALP level vs control (Wistar rats [3]; Wistar rats, 100 and 1000 mg/kg oral, higher than control): the increase was limited and was not significant | SGOT level vs control (Wistar rats [3]; Wistar rats, maximal dose (2000 mg/kg) oral, within normal range, not significant): marginally higher | interaction with BCL-xL (BCL-xL): not with other antiapoptotic proteins such as BCL-xL | solubility in HCl ([4]; 0.1, 0.3 and 0.6 N HCl tested): soluble only in higher acidic conditions such as 0.3 N HCl | DMSO concentration giving complete dissolution ([4]; HPLC at 232 nm): > 75% | solubility in alcohol in combination with HCl ([4]; alcohol 40, 60% with HCl): soluble in 40% alcohol and 0.3 and 0.6 N HCl | disruption of BCL2-BAK interaction [5]: disruption of the interaction of BCL2 with its proapoptotic partner BAK | platelet count vs control (Wistar rats [6]; 100 mg/kg oral, day 14): such a difference was not observed | Eosinophils (Wistar rats [6]; [8]): 1.0% | MCH (mean corpuscular haemoglobin) (Wistar rats [6]; [8]): 21.9 pg | MCHC (mean corpuscular haemoglobin concentration) (Wistar rats [6]; [8]): 36.5% | MCV (mean cell volume) (Wistar rats [6]; [8]): 60.2 fL | Monocytes (Wistar rats [6]; [8]): 3.5% | PCV (packed cell volume) (Wistar rats [6]; [8]): 40.0% | Eosinophils (Wistar rats [6]; [9]): 1.2% | MCH (mean corpuscular haemoglobin) (Wistar rats [6]; [9]): 22.0 pg | MCHC (mean corpuscular haemoglobin concentration) (Wistar rats [6]; [9]): 33.0% | MCV (mean cell volume) (Wistar rats [6]; [9]): 66.6 fL | Monocytes (Wistar rats [6]; [9]): 4.2% | PCV (packed cell volume) (Wistar rats [6]; [9]): 38.4% | platelet count vs control (Wistar rats [6]; 1000 mg/kg b. wt. oral, day 14): marginal variation | Eosinophils (Wistar rats [6]; [10]): 1.0% | MCH (mean corpuscular haemoglobin) (Wistar rats [6]; [10]): 21.2 pg | MCHC (mean corpuscular haemoglobin concentration) (Wistar rats [6]; [10]): 32.3% | MCV (mean cell volume) (Wistar rats [6]; [10]): 65.7 fL | Monocytes (Wistar rats [6]; [10]): 3.2% | PCV (packed cell volume) (Wistar rats [6]; [10]): 40.2% | Eosinophils (Wistar rats [6]; [11]): 1.2% | MCH (mean corpuscular haemoglobin) (Wistar rats [6]; [11]): 21.9 pg | MCHC (mean corpuscular haemoglobin concentration) (Wistar rats [6]; [11]): 27.9% | MCV (mean cell volume) (Wistar rats [6]; [11]): 78.6 fL | Monocytes (Wistar rats [6]; [11]): 8.1% | PCV (packed cell volume) (Wistar rats [6]; [11]): 36.9% | platelet count vs control (Wistar rats [6]; 2000 mg/kg oral, day 14): such a difference was not observed | Eosinophils (Wistar rats [6]; [12]): 1.0% | MCH (mean corpuscular haemoglobin) (Wistar rats [6]; [12]): 21.2 pg | MCHC (mean corpuscular haemoglobin concentration) (Wistar rats [6]; [12]): 33.4% | MCV (mean cell volume) (Wistar rats [6]; [12]): 63.7 fL | Monocytes (Wistar rats [6]; [12]): 2.4% | PCV (packed cell volume) (Wistar rats [6]; [12]): 41.2% | Eosinophils (Wistar rats [6]; [13]): 1.1% | MCH (mean corpuscular haemoglobin) (Wistar rats [6]; [13]): 20.7 pg | MCV (mean cell volume) (Wistar rats [6]; [13]): 63.3 fL | Monocytes (Wistar rats [6]; [13]): 3.0% | PCV (packed cell volume) (Wistar rats [6]; [13]): 43.3% | HGB content vs control (Wistar rats [6]; [14]): no significant difference | WBC counts vs control (Wistar rats [6]; [14]): no significant difference | lymphocytes count vs control (Wistar rats [6]; [14]): no significant difference | neutrophils count vs control (Wistar rats [6]; [14]): no significant difference | total number of RBC vs control (Wistar rats [6]; [14]): no significant difference
